{"source": "patent US20060040255A1", "about": "“Cell line designated KT-1 established from tongue epithelial and use thereof” (National Food Research Institute, priority 2003, published 2006)", "key": {"[1]": {"molecular_target": "sweet taste receptors T1r2 and T1r3 (Mus musculus, UniProt Q925D8+Q925I4)", "sequence (Q925I4 20-843)": "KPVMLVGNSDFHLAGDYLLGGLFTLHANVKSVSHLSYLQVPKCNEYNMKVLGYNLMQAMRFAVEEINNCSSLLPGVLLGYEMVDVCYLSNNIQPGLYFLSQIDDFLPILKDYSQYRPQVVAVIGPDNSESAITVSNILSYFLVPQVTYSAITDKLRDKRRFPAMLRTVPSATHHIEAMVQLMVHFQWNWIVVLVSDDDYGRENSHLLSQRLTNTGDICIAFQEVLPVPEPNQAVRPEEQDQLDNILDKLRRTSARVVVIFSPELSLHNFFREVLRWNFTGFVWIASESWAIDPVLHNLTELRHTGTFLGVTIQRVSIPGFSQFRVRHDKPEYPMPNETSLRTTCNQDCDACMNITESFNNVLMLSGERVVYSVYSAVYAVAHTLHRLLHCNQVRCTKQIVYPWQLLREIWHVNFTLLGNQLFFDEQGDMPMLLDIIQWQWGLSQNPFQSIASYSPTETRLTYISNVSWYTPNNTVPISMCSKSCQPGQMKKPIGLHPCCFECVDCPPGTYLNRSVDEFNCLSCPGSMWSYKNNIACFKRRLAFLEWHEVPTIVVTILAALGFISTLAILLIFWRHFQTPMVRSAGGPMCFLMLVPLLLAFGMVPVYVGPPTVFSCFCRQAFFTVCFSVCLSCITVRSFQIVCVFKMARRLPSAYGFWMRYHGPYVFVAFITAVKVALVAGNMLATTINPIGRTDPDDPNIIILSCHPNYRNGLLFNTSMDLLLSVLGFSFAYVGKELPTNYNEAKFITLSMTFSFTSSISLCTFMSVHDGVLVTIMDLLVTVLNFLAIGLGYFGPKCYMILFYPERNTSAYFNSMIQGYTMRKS", "sequence (Q925D8 21-858)": "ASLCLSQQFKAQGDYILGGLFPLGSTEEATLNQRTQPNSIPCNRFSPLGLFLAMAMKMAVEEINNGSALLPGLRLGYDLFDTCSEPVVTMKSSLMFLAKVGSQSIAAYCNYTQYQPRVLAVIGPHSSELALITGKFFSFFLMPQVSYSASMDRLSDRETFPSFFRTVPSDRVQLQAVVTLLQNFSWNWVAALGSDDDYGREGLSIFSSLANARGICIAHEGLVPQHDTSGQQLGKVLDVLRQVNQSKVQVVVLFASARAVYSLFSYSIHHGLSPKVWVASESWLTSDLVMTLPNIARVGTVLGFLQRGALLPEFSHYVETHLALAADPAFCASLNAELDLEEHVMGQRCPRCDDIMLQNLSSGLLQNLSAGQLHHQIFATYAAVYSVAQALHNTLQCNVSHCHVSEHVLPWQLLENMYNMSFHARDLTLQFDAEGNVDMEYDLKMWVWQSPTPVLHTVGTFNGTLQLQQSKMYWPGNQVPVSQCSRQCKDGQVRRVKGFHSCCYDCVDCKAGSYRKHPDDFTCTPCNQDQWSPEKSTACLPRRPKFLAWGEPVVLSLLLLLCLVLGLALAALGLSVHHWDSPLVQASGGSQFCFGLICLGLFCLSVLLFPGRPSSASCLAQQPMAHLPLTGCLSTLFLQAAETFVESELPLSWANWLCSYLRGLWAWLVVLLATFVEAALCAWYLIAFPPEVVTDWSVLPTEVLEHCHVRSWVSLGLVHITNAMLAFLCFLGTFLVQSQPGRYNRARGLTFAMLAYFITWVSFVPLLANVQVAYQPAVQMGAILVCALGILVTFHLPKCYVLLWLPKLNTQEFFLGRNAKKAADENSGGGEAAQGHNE", "conditions": "KT-1C cells; final concentration 5 mM; 0.5 minutes after addition", "quoted_text": "KT-1C cells which had been washed twice in PBS(−) were incubated for 30 minutes at room temperature with 1 ml of imaging buffer (NaHCO3 22 mM, KCl 5 mM, NaH2PO4 1.25 mM, glucose 10 mM, NaCl 124 mM) to which 5 μl of Fura-2-AM (1 mM dissolved in DMSO, Molecular Probe) and 5 μl of Cremophor (Nacalai Tesque) had been added, incorporating Fura-2-AM into the cells. They were then washed twice with imaging buffer to remove any Fura-2-AM that had not been incorporated into the cells.\nNext the dish was filled with 1 ml of imaging buffer to which 1 mM MgCl2 and 2 mM CaCl2 had been added, and the artificial sweetener Acesul fame K (Fluka), which is known to be a ligand for sweet taste receptors T1r2 and T1r3, was added to a final concentration of 5 mM. […] After measurement, changes over time in florescence in the various cells were converted to changes in calcium concentration by the AquaCosmos software, and graphed."}, "[2]": {"molecular_target": "salt sensing channel αENaC (Mus musculus, UniProt Q61180)", "sequence (Q61180 whole entry)": "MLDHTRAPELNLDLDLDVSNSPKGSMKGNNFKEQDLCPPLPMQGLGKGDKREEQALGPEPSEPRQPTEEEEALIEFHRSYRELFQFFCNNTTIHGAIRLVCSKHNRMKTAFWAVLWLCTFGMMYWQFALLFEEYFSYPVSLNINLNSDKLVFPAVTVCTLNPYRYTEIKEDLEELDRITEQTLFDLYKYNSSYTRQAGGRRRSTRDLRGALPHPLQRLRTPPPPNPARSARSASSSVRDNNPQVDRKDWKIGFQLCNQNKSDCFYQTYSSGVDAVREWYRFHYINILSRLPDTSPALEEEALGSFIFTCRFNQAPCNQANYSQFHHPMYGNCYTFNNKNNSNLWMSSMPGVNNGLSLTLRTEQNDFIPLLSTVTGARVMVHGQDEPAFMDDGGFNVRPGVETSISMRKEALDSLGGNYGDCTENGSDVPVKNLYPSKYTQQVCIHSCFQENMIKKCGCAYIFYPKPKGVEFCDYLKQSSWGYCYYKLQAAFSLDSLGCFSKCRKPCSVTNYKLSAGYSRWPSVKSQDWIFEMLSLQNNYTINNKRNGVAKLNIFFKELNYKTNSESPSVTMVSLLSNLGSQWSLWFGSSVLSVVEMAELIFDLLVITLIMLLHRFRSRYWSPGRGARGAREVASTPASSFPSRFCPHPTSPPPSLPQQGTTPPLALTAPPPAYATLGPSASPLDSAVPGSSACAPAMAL", "conditions": "KT-1C cells", "experimental": "Next they were washed twice with Na imaging buffer to remove any CoroNa-Red that had not been incorporated into the cells.\nNext, the dish was filled with 1 mL of imaging buffer to which 1 mM MgCl2 and 2 mM CaCl2 had been added, and NaCl, which is known to be a salt taste channel ligand, was then added thereto to a final concentration of 50 mM. It is known that when cells with salt taste response ability (in other words, cells in which the salt sensing channel αENaC is functionally expressed) respond to NaCl (salty substance), sodium flows into the cytoplasm, and the concentration of sodium in the cytoplasm rises. Therefore, the fluorescence (580 nm) produced by CoroNa-Red when sodium flowed into the cytoplasm due to addition of NaCl was measured over time using an inverted fluorescence microscope (Leica, DMRIB) equipped with a CCD camera (Hamamatsu Photonics) controlled by AquaCosmos software (Hamamatsu Photonics). After measurement, changes over time inflorescence in the various cells were converted to changes in sodium concentration using the AquaCosmos software, and graphed."}, "salt taste channel αENaC": {"system": "salt taste channel αENaC", "assay": "Hormone regulation of αENaC expression in cell line KT-1B (RT-PCR)", "format": "cell-based, mouse", "conditions": "cell line KT-1B treated for 6 days; aldosterone 1 μM, hydrocortisone 0.2 μM; compared with progesterone 0.1 μM", "experimental": "While being cultured in the presence of hydrocortisone, cell line KT-1B constantly expresses the amiloride-sensitive sodium channel alpha subunit (αENaC), which might be involved in salt taste response.\nTherefore, cell line KT-1B was treated for 6 days with the hormone progesterone (0.1 μM), aldosterone (1 μM) or hydrocortisone (0.2 μM), and expression of the salt sensing channel αENaC was investigated.\nRNA was extracted with Trizol solution from the treated cell line KT-1B, and cDNA was synthesized on a scale of 40 μl using the resulting 2 μg of RNA and a Super Script First Strand cDNA synthesis kit. Using 1 μl of this cDNA as the template and primers specific to salt taste channel αENaC (0.2 μM each, Seq. Nos. 13 and 14), 2.5 units of Takara Taq were added and a PCR reaction consisting of denaturation at 95° C. for 5 minutes followed by 35 cycles of 1 minute at 95° C., 1 minute at 58° C. and 2 minutes at 72° C. was performed in a 25 μl system. 8 μl of the PCR reaction liquid was electrophoresed on a 1.5% agarose gel, stained with ethidium bromide and photographed."}}, "data": [{"smiles": "CC1=CC(=O)[N-]S(=O)(=O)O1.[K+]", "note": "[Acesulfame K]", "values": [{"measurement": "intercellular calcium concentration (Fura-2 fluorescence) after addition", "setting": "[1]", "result": "rise in intercellular calcium concentration"}]}, {"smiles": "[Cl-].[Na+]", "note": "[NaCl]", "values": [{"measurement": "dependence of intercellular sodium concentration on added concentration", "setting": "[2]; 50 mM then 150 mM added", "result": "affected by the concentration of added NaCl"}, {"measurement": "intercellular sodium concentration (CoroNa-Red fluorescence) after addition", "setting": "[2]; final concentration 50 mM, 0.5 minutes after addition", "result": "rise in intercellular sodium concentration"}]}, {"smiles": "C[C@]12CCC(=O)C=C1CC[C@@H]1[C@@H]2[C@@H](O)C[C@]2(C=O)[C@@H](C(=O)CO)CC[C@@H]12", "note": "[aldosterone]", "values": [{"measurement": "amount of expression of the salt taste channel αENaC (mRNA, RT-PCR)", "setting": "salt taste channel αENaC", "result": "greater"}]}, {"smiles": "C[C@]12CCC(=O)C=C1CC[C@@H]1[C@@H]2[C@@H](O)C[C@@]2(C)[C@H]1CC[C@]2(O)C(=O)CO", "note": "[hydrocortisone]", "values": [{"measurement": "amount of expression of the salt taste channel αENaC (mRNA, RT-PCR)", "setting": "salt taste channel αENaC", "result": "greater"}]}]}
